Read-outs that look alike come from different tables or passages of the source. Positions of bridges follow the written chain, without caps; N, C: chain ends. Non-standard residues stand in square brackets, D forms with d. Residues, ends and D or L forms follow the SMILES beside them. *: point of attachment. NMeF = CN[C@@H](Cc1ccccc1)C(=O)O; NMeI = CC[C@H](C)[C@H](NC)C(=O)O; NMeL = CN[C@@H](CC(C)C)C(=O)O; NMeV = CN[C@H](C(=O)O)C(C)C; NMeA = CN[C@@H](C)C(=O)O; Piperidide = C1CCN(*)CC1; dNMeA = CN[C@H](C)C(=O)O; Sar = CNCC(=O)O; tBu = CC(C)(C)*

Series [1] is described as follows: PAMPA (parallel artificial membrane permeability assay). The series is classed as in vitro ADME. The conditions noted are these: PAMPA. In short, it runs like this:
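Artificial membrane was 10% (w/v) egg lecithin plus 0.5% (w/v) cholesterol in dodecane on a PVDF filter. A 10 mM DMSO stock was added at 0.5% (v/v) to donor buffer (50 mM MOPSO, pH 6.5, 5.0% glycocholic acid). After 18 h at 37 °C, LC/MS or LC/UV gave donor and acceptor levels for Pe.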

Series [2] in a line: Metabolic stability in human hepatic microsome. The series is classed as in vitro ADME. To be noted: microsomes.
Setting [3] is: membrane permeation rate (Pe), 50 mM MOPSO buffer pH 6.5 with 5.0% glycocholic acid, 37° C., 18 hours, read-out: iPAMPA Pe.
[4] abbreviates: pH 7.4, human hepatic microsome, NADPH(+), read-out: CL NADPH(+).

Regarding `CC(C)C[C@H]1C(=O)NCC(=O)N[C@H](C(=O)N(C)[C@@H](Cc2ccccc2)C(=O)N[C@@H](C)C(=O)N2CCCCC2)CC(=O)N[C@H](C(C)C)C(=O)N[C@@H]([C@@H](C)O)C(=O)N(C)[C@@H](C)C(=O)N(C)[C@@H](Cc2ccccc2)C(=O)N[C@@H](C(C)C)C(=O)N(C)[C@@H](Cc2ccccc2)C(=O)N1C` [DP-382] ([dV]T[NMeA][NMeF]V[NMeF][NMeL]GD[NMeF]A-Piperidide; lactam N-9), the Papp at 18 hours, 50 µM in series [1] (setting [3]) came out at 49 ×10⁻⁶ cm/s. In addition, the microsomal CLint at 1 uM in series [2] (setting [4]) is 188 µL/min/mg.

`CC[C@H](C)[C@H]1C(=O)N[C@@H]([C@@H](C)O)C(=O)N(C)CC(=O)N(C)[C@@H](CC(C)C)C(=O)N[C@H](C(=O)N2CCCCC2)CC(=O)N(C)[C@H](C)C(=O)N[C@@H](CC(C)C)C(=O)N(C)[C@@H](CC(C)C)C(=O)N(C)[C@@H](Cc2ccccc2)C(=O)N[C@@H](C)C(=O)N(C)[C@@H](Cc2ccccc2)C(=O)N1C` [DP-105] ([dNMeA]L[NMeL][NMeF]A[NMeF][NMeI]T[Sar][NMeL]D-Piperidide; lactam N-11): in series [1] (pH 6.5), the Papp at 18 hours, 50 µM amounted to 45 ×10⁻⁶ cm/s. This molecule also displayed a microsomal CLint at 1 uM in series [2] (human, pH 7.4, CL NADPH(+)) of 60 µL/min/mg.

The molecule `CC[C@H](C)[C@H]1C(=O)N(C)[C@@H](Cc2ccccc2)C(=O)NCC(=O)N[C@@H]([C@@H](C)O)C(=O)N[C@@H](Cc2ccccc2)C(=O)N(C)[C@@H](CC(C)C)C(=O)N2CCC[C@H]2C(=O)N[C@H](C(=O)N2CCCCC2)CC(=O)N[C@H](C)C(=O)N[C@@H](CC(C)C)C(=O)N(C)[C@@H](C)C(=O)N[C@@H](CC(C)C)C(=O)N1C` [DP-54] ([dA]L[NMeA]L[NMeI][NMeF]GTF[NMeL]PD-Piperidide; lactam N-12) had a Papp at 18 hours, 50 µM in series [1] (pH 6.5) of 15 ×10⁻⁶ cm/s. The molecule also gave a microsomal CLint at 1 uM in series [2] (human, pH 7.4, CL NADPH(+)) of 13 µL/min/mg.

Turning to `CC(C)C[C@@H]1NC(=O)[C@H]([C@@H](C)O)NC(=O)[C@H](Cc2ccccc2)N(C)C(=O)[C@H](CC(C)C)N(C)C(=O)[C@H](Cc2ccccc2)N(C)C(=O)[C@H](C)N(C)C(=O)[C@H](C)N(C)C(=O)[C@H](CC(C)C)N(C)C(=O)[C@@H](C)NC(=O)C[C@@H](C(=O)N2CCCCC2)NC1=O` [DP-169] ([dA][NMeL][NMeA][NMeA][NMeF][NMeL][NMeF]TLD-Piperidide; lactam N-10), the Papp at 18 hours, 50 µM in series [1] (setting [3]) was found to be 36 ×10⁻⁶ cm/s. Besides, the microsomal CLint at 1 uM in series [2] (setting [4]) worked out at 43 µL/min/mg.

In the case of `C=C1CCC(=O)NCC(=O)N(C)[C@@H](C)C(=O)N[C@@H](CC(C)C)C(=O)N[C@@H](C(C)C)C(=O)N(C)[C@@H](CC(C)C)C(=O)N[C@@H](Cc2ccccc2)C(=O)N(C)[C@@H](Cc2ccccc2)C(=O)N[C@@H]([C@@H](C)CC)C(=O)N(C)[C@@H](C)C(=O)N[C@@H](CC(C)C)C(=O)N[C@@H]([C@@H](C)O)C(=O)N[C@H](C(=O)N2CCCCC2)Cc2cccc1c2` [DP-889], in series [1] (setting [3]), the Papp at 18 hours, 50 µM stood at 3.6 ×10⁻⁶ cm/s. The microsomal CLint at 1 uM in series [2] (setting [4]) worked out at 89 µL/min/mg.

For `CC[C@H](C)[C@@H]1NC(=O)[C@H](CC(C)C)N(C)C(=O)[C@H](C)N(C)C(=O)[C@H]([C@@H](C)O)NC(=O)[C@H](Cc2ccccc2)N(C)C(=O)[C@H](C)N(C)C(=O)[C@@H](C)N(C)C(=O)C[C@@H](C(=O)N(C)[C@@H](Cc2ccccc2)C(=O)N(C)[C@@H](Cc2ccccc2)C(=O)N[C@@H](C)C(=O)N2CCCCC2)NC(=O)[C@H](C(C)C)N(C)C(=O)[C@H](CC(C)C)N(C)C1=O` [DP-300] ([dNMeA][NMeA][NMeF]T[NMeA][NMeL]I[NMeL][NMeV]D[NMeF][NMeF]A-Piperidide; lactam N-10), the Papp at 18 hours, 50 µM in series [1] (setting [3]) was 8.2 ×10⁻⁶ cm/s. Also, the microsomal CLint at 1 uM in series [2] (setting [4]) came to 166 µL/min/mg.

Regarding `CC(C)C[C@H]1C(=O)N(C)[C@@H](Cc2ccccc2)C(=O)N[C@H](C(=O)N2CCCCC2)CC(=O)N(C)[C@H](C)C(=O)N[C@@H]([C@@H](C)O)C(=O)N(C)[C@@H](C)C(=O)N(C)[C@@H](Cc2ccccc2)C(=O)N[C@@H](COC(C)(C)C)C(=O)NCC(=O)N1C` [DP-270] ([dNMeA]T[NMeA][NMeF]S(tBu)G[NMeL][NMeF]D-Piperidide; lactam N-9), the Papp at 18 hours, 50 µM in series [1] (setting [3]) was 22 ×10⁻⁶ cm/s. In addition, the microsomal CLint at 1 uM in series [2] (setting [4]) stood at 79 µL/min/mg.

The values are drawn from patent publication US9409952B2, “Peptide-compound cyclization method” (Chugai Seiyaku Kabushiki Kaisha, priority 2011, dated 2016).
